Molecules are shown by their SMILES. Where only a bound is given, the exact number is not on record here.

The target in the assay is T1, CCR1 (Homo sapiens, UniProt P32246).
T1 sequence (P32246 1-355): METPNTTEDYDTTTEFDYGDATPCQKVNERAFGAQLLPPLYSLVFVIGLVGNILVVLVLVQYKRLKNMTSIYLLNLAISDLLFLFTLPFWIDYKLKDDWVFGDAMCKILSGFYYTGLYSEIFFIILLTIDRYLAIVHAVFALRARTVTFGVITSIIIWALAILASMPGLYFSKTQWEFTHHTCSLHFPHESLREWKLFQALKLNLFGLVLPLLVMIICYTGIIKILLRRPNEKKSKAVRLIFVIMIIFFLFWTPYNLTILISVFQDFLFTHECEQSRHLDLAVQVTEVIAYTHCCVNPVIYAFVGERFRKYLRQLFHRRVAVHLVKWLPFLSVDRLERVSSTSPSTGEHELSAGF
Kind of assay: CCR1 chemotaxis assay or binding assay (inhibition of CCR1 ligand binding / CCR1 mediated migration).
Method: Cells were grown under 5% CO2/95% air, 100% humidity at 37° C. and subcultured twice weekly at 1:5 (cells were cultured at a density range of 2×10^5 to 2×10^6 cells/mL) and harvested at 1×10^6 cells/mL.
Monocytes were isolated from human buffy coats using the Miltenyi bead isolation system (Miltenyi, Auburn, Calif.). Briefly, following a Ficoll gradient separation to isolate peripheral blood mononuclear cells, cells were washed with PBS and the red blood cells lysed using standard procedures. Remaining cells were labeled with anti-CD14 antibodies coupled to magnetic beads (Miltenyi Biotech, Auburn, Calif.). Labeled cells were passed through AutoMACS (Miltenyi, Auburn, Calif.) and positive fraction collected.
CCR1 expressing cells were centrifuged and resuspended in assay buffer (20 mM HEPES pH 7.1, 140 mM NaCl, 1 mM CaCl2, 5 mM MgCl2, and with 0.2% bovine serum albumin) to a concentration of 5×10^6 cells/mL for THP-1 cells and 5×10^5 for monocytes. Binding assays were set up as follows. […] Reactions were aspirated onto GF/B glass filters pre-soaked in 0.3% polyethyleneimine (PEI) solution, on a vacuum cell harvester (Packard Instruments; Meriden, Conn.). Scintillation fluid (40 μl; Microscint 20, Packard Instruments) was added to each well, the plates were sealed and radioactivity measured in a Topcount scintillation counter (Packard Instruments). Control wells containing either diluent only (for total counts) or excess MIP-1α or MIP-1β (1 μg/mL, for non-specific binding) were used to calculate the percent of total inhibition for compound. The computer program Prism from GraphPad, Inc. (San Diego, Calif.) was used to calculate IC50 values.
Chemotaxis assays were performed using 5 ? m pore polycarbonate, polyvinylpyrrolidone-coated filters in 96-well chemotaxis chambers (Neuroprobe; Gaithersburg, Md.) using chemotaxis buffer (Hank's balanced salt solution (HBSS) and 1% FBS). CCR1 chemokine ligands (i.e., MIP-1α, CCL15/Leukotactin; R&D Systems; Minneapolis, Minn.) are use to evaluate compound mediated inhibition of CCR1 mediated migration. Other chemokines (i.e., SDF-1α; R&D Systems; Minneapolis, Minn.) are used as specificity controls. […] The chambers were incubated 1-2 hours at 37° C., and the number of cells in the lower chamber quantified either by direct cell counts in five high powered fields per well or by the CyQuant assay (Molecular Probes), a fluorescent dye method that measures nucleic acid content and microscopic observation.
Equal numbers of cells were added to each well in the plate. The cells were then incubated with radiolabeled MIP-1α. Unbound ligand was removed by washing the cells, and bound ligand was determined by quantifying radioactive counts. […] Percent inhibition was determined by the equation:
In the assay, the amount of compound was varied; while cell number and ligand concentration were held constant.
THP-1 myelomonocytic leukemia cells, which resemble monocytes, as wells as freshly isolated monocytes, were used as targets for chemoattraction by CCR1 chemokine ligands (i.e., MIP-1α, CCL15/leukotactin). […] In this assay, the amount of compound was varied; while cell number and chemokine agonist concentrations were held constant. After the chemotaxis chambers were incubated 1-2 hours at 37° C., the responding cells in the lower chamber were quantified by labeling with the CyQuant assay (Molecular Probes), a fluorescent dye method that measures nucleic acid content, and by measuring with a Spectrafluor Plus (Tecan).
A word on the IC50: it is the concentration at which inhibition is half-maximal. Read a low IC50 as greater potency. The compound `Cc1c(Cl)c(C(F)(F)F)nn1CC(=O)N1CCC(O)(c2ccc(Br)cc2)CC1` [Example 10, 2-(4-Chloro-5-methyl-3-trifluoromethyl-pyrazol-1-yl)-1-(4-hydroxy-4-(4-bromo)-phenyl-piperidin-1-yl)-ethanone] showed an IC50 of 1000 to 25000 nM. The figure for `Cc1c(Cl)c(C(F)(F)F)nn1CC(=O)N1CCC(O)(c2ccc(Cl)cc2)CC1` [Example 8, 2-(4-Chloro-5-methyl-3-trifluoromethyl-pyrazol-1-yl)-1-(4-hydroxy-4-(4-chloro)-phenyl-piperidin-1-yl)-ethanone] is below 1000 nM; for `Cc1c(Cl)c(C(F)(F)F)nn1CC(=O)N1CCC(C#N)(c2ccccc2)CC1` [Example 12, 1-[2-(4-chloro-5-methyl-3-trifluoromethyl-pyrazol-1-yl)-acetyl]-4-phenyl-piperidine-4-carbonitrile] it is 1000 to 25000 nM; for `Cc1c(Cl)c(C(F)(F)F)nn1CC(=O)N1CCC(c2ccc(Cl)cc2)(c2nnn[nH]2)CC1` [Example 20, 2-(4-chloro-5-methyl-3-trifluoromethyl-pyrazol-1-yl)-1-[4-(4-chloro-phenyl)-4-(1H-tetrazol-5-yl)-piperidin-1-yl]-ethanone] it is 1000 to 25000 nM. Take `Cc1c(Cl)c(C(F)(F)F)nn1CC(=O)N1CCC(C(=O)N2CCCC2)(c2ccc(Cl)cc2)CC1` [Example 15, 2-(4-chloro-5-methyl-3-trifluoromethyl-pyrazol-1-yl)-1-[4-(4-chloro-phenyl)-4-(pyrrolidine-1-carbonyl)-piperidin-1-yl]-ethanone]: the IC50 lay in the range of 1000 to 25000 nM. Then `Cc1c(Cl)c(C(F)(F)F)nn1CC(=O)N1CCC(C(=O)N2CCCCC2)(c2ccc(Cl)cc2)CC1` [Example 16, 2-(4-chloro-5-methyl-3-trifluoromethyl-pyrazol-1-yl)-1-[4-(4-chloro-phenyl)-4-(piperidine-1-carbonyl)-piperidin-1-yl]-ethanone], with 1000 to 25000 nM; and `Cc1c(Cl)c(C(F)(F)F)nn1CC(=O)N1CCC(C(=O)N2CCN(C)CC2)(c2ccc(Cl)cc2)CC1` [Example 18, 2-(4-chloro-5-methyl-3-trifluoromethyl-pyrazol-1-yl)-1-[4-(4-chloro-phenyl)-4-(4-methyl-piperazine-1-carbonyl)-piperidin-1-yl]-ethanone], with above 25000 nM. Then `Cc1c(Cl)c(C(F)(F)F)nn1CC(=O)N1CCC(C(N)=O)(c2ccc(Cl)cc2)CC1` [Example 22, 1-[2-(4-chloro-5-methyl-3-trifluoromethyl-pyrazol-1-yl)-acetyl]-4-(4-chloro-phenyl)-piperidine-4-carboxylic acid amide], with below 1000 nM; and `Cc1c(Cl)c(C(F)(F)F)nn1CC(=O)N1CCC(O)(c2cccc(C(F)(F)F)c2)CC1` [Example 11, 2-(4-Chloro-5-methyl-3-trifluoromethyl-pyrazol-1-yl)-1-(4-hydroxy-4-(3-trifluoromethyl)-phenyl-piperidin-1-yl)-ethanone], with 1000 to 25000 nM.

`Cc1c(Cl)c(C(F)(F)F)nn1CC(=O)N1CCC(C#N)(c2ccc(Cl)cc2)CC1` [Example 1, 1-[2-(4-chloro-5-methyl-3-trifluoromethyl-pyrazol-1-yl)-acetyl]-4-(4-chloro-phenyl)-piperidine-4-carbonitrile] came in with an IC50 below 1000 nM.

For `CCC(=O)C1(c2ccccc2)CCN(C(=O)Cn2nc(C(F)(F)F)c(Cl)c2C)CC1` [Example 28, 1-(4-ethylcarbonyl-4-phenyl-piperidin-1-yl)-2-(4-chloro-5-methyl-3-trifluoromethyl-pyrazol-1-yl)-ethanone], the IC50 lay in the range of 1000 to 25000 nM.

Compound `CCN(CC)C(=O)C1(c2ccc(Cl)cc2)CCN(C(=O)Cn2nc(C(F)(F)F)c(Cl)c2C)CC1` [Example 14, 1-[2-(4-chloro-5-methyl-3-trifluoromethyl-pyrazol-1-yl)-acetyl]-4-(4-chloro-phenyl)-piperidine-4-diethylamide] returned an IC50 of 1000 to 25000 nM. Then `COC(=O)C1(c2ccc(Cl)cc2)CCN(C(=O)Cn2nc(C(F)(F)F)c(Cl)c2C)CC1` [Example 2, 1-[2-(4-chloro-5-methyl-3-trifluoromethyl-pyrazol-1-yl)-acetyl]-4-(4-chloro-phenyl)-piperidine-4-carboxylic acid methyl ester], with below 1000 nM. `COc1cc(C2(O)CCN(C(=O)COc3ccc(Cl)cc3)CC2)ccc1Cl` [Example 6, 1-[4-(4-Chloro-3-methoxy-phenyl)-4-hydroxy-piperidin-1-yl]-2-(4-chloro-phenoxy)-ethanone] registered an IC50 below 1000 nM. Then `Cc1c(Cl)c(C(F)(F)F)nn1CC(=O)N1CCC(CO)(c2ccc(Cl)cc2)CC1` [Example 23, 2-(4-chloro-5-methyl-3-trifluoromethyl-pyrazol-1-yl)-1-[4-(4-chloro-phenyl)-4-hydroxymethyl-piperidin-1-yl]-ethanone], with 1000 to 25000 nM; and `Cc1c(Cl)c(C(F)(F)F)nn1CC(=O)N1CCC(C(=O)N2CCNCC2)(c2ccc(Cl)cc2)CC1` [Example 17, 2-(4-chloro-5-methyl-3-trifluoromethyl-pyrazol-1-yl)-1-[4-(4-chloro-phenyl)-4-(piperazine-1-carbonyl)-piperidin-1-yl]-ethanone], with above 25000 nM.

Take `CNC(=O)C1(c2ccc(Cl)cc2)CCN(C(=O)Cn2nc(C(F)(F)F)c(Cl)c2C)CC1` [Example 13, 1-[2-(4-chloro-5-methyl-3-trifluoromethyl-pyrazol-1-yl)-acetyl]-4-(4-chloro-phenyl)-piperidine-4-methylamide]: the IC50 lay in the range of 1000 to 25000 nM.

The compound `Cc1c(Cl)c(C(F)(F)F)nn1CC(=O)N1CCC(C(=N)NO)(c2ccc(Cl)cc2)CC1` [Example 21, 1-[2-(4-chloro-5-methyl-3-trifluoromethyl-pyrazol-1-yl)-acetyl]-4-(4-chloro-phenyl)-N-hydroxy-piperidine-4-carboxamidine] registered an IC50 below 1000 nM. Compound `CCCC(=O)C1(c2ccccc2)CCN(C(=O)Cn2nc(C(F)(F)F)c(Cl)c2C)CC1` [Example 29, 1-(4-propylcarbonyl-4-phenyl-piperidin-1-yl)-2-(4-chloro-5-methyl-3-trifluoromethyl-pyrazol-1-yl)-ethanone] returned an IC50 below 1000 nM. Then `Cc1c(Cl)c(C(F)(F)F)nn1CC(=O)N1CCC(O)(c2ccccc2)CC1` [Example 7, 2-(4-Chloro-5-methyl-3-trifluoromethyl-pyrazol-1-yl)-1-(4-hydroxy-4-phenyl-piperidin-1-yl)-ethanone], with 1000 to 25000 nM. Then `Cc1c(Cl)c(-c2ncco2)nn1CC(=O)N1CCC(C#N)(c2ccc(Cl)cc2)CC1` [Example 3, 1-[2-(4-chloro-5-methyl-3-oxazol-2-yl-pyrazol-1-yl)-acetyl]-4-(4-chloro-phenyl)-piperidine-4-carbonitrile], with below 1000 nM; and `Cc1c(Cl)c(C(F)(F)F)nn1CC(=O)N1CCC(C(=O)O)(c2ccc(Cl)cc2)CC1` [Example 25, 1-[2-(4-chloro-5-methyl-3-trifluoromethyl-pyrazol-1-yl)-acetyl]-4-(4-chloro-phenyl)-piperidine-4-carboxylic acid], with above 25000 nM. In turn, `CC(=O)C1(c2ccccc2)CCN(C(=O)Cn2nc(C(F)(F)F)c(Cl)c2C)CC1` [Example 27, 1-(4-Acetyl-4-phenyl-piperidin-1-yl)-2-(4-chloro-5-methyl-3-trifluoromethyl-pyrazol-1-yl)-ethanone] gave an IC50 of 1000 to 25000 nM. Regarding `Cc1c(Cl)c(C(F)(F)F)nn1CC(=O)N1CCC(C(=O)N2CCOCC2)(c2ccc(Cl)cc2)CC1` [Example 19, 2-(4-chloro-5-methyl-3-trifluoromethyl-pyrazol-1-yl)-1-[4-(4-chloro-phenyl)-4-(4-morpholine-1-carbonyl)-piperidin-1-yl]-ethanone morpholine], the IC50 is 1000 to 25000 nM. Then `Cc1c(Cl)c(C(F)(F)F)nn1CC(=O)N1CCC(O)(c2ccc(Cl)c(C(F)(F)F)c2)CC1` [Example 9, 2-(4-Chloro-5-methyl-3-trifluoromethyl-pyrazol-1-yl)-1-(4-hydroxy-4-(4-chloro-3-trifluoromethyl)-phenyl-piperidin-1-yl)-ethanone], with 1000 to 25000 nM; and `COc1cc(C2(O)CCN(C(=O)Cn3nc(-c4ncco4)c(Cl)c3C)CC2)ccc1Cl` [Example 5, 1-[4-(4-Chloro-3-methoxy-phenyl)-4-hydroxy-piperidin-1-yl]-2-(4-chloro-5-methyl-3-oxazol-2-yl-pyrazol-1-yl)-ethanone], with below 1000 nM. The figure for `Cc1c(Cl)c(C(F)(F)F)nn1CC(=O)N1CCC(CN)(c2ccc(Cl)cc2)CC1` [Example 24, 1-[4-aminomethyl-4-(4-chloro-phenyl)-piperidin-1-yl]-2-(4-chloro-5-methyl-3-trifluoromethyl-pyrazol-1-yl)-ethanone] is 1000 to 25000 nM; for `COc1cc(C2(C#N)CCN(C(=O)Cn3nc(C(F)(F)F)c(Cl)c3C)CC2)ccc1Cl` [Example 26] it is below 1000 nM; for `COc1cc(C2(O)CCN(C(=O)Cn3nc(C(F)(F)F)c(Cl)c3C)CC2)ccc1Cl` [Example 4, 1-[4-(4-Chloro-3-methoxy-phenyl)-4-hydroxy-piperidin-1-yl]-2-(4-chloro-5-methyl-3-trifluoromethyl-pyrazol-1-yl)-ethanone] it is below 1000 nM.

Values taken from patent US7576218B2, “4-phenylpiperdine-pyrazole CCR1 antagonists” (ChemoCentryx, Inc., priority 2005, dated 2009).
